# Results published in patent US20250064762A1, “A SUBSTITUTED AROMATIC DICARBONIC ACID AMIDE AS AN INHIBITOR OF THE FERROPTOSIS SUPPRESSOR PROTEIN-1 (FSP1)” (JULIUS-MAXIMILIANS-UNIVERSITÄT WÜRZBURG, priority 2021, published 2025).
# Key:
# [1] = molecular target: T1, human FSP1 (Homo sapiens, UniProt Q9BRQ8); experiment: Biolayer interferometry binding kinetics, human FSP1; conditions: 25° C.
# T1 construct: His6 (N, cleaved yes); made in house; host or cells: Escherichia coli BL21 pG-Tf2
# T1 sequence (Q9BRQ8 1-373): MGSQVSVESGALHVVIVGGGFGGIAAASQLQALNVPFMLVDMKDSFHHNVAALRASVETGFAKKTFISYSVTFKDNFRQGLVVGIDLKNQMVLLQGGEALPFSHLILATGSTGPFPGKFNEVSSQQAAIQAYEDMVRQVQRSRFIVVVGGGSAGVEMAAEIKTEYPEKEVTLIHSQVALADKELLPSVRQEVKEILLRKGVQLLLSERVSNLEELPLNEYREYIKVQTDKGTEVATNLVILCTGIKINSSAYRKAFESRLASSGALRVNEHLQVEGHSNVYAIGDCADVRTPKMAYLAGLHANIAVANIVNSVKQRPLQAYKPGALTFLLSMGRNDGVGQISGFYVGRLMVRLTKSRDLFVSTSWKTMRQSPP
# Experimental: Purified, AviTag-fused mFSP1 or hFSP1 were enzymatically biotinylated with the E. coli biotin ligase BirA. To this end, FSP1 proteins (48 μM) were incubated with purified GST-BirA in the presence of ATP and D-biotin (Sigma Aldrich) as described (Fairhead et al., 2015). GST-BirA was removed using glutathione Sepharose 4 Fast Flow (GE Healthcare), and samples were dialyzed against TNM (pH 7.4) to remove free biotin.
# Biotinylated, AviTag-fused mFSP1 or hFSP1 (1.5 μM in TNM buffer supplemented with 0.005% (v/v) Tween-20) was immobilized on streptavidin-coated biosensors (Super Streptavidin/SSA Dip and Read Biosensors, ForteBio). The sensors were then quenched with 27 μM biocytin (Sigma Aldrich), and binding kinetics were measured at 25° C. on a ForteBio Octet Red 96e instrument. Dissociation was initiated after 90 s. Reference sensors were quenched with 27 μM biocytin. Raw data was double referenced, and a global exponential regression 1:1 model was applied for kinetic analyses. Data are mean values±S.D. of at least n=4 measurements. KD, dissociation constant; Kon, on-rate constant; Koff, off-rate constant.
# We also determined the CPBA and iFSP1 on-rate, off-rate and dissociation constants, which are associated with the binding and unbinding reaction of target and inhibitor. […]
# [2] = tested on: FSP1-WT or FSP1-KO HT1080 cells; experiment: FIN-induced ferroptosis in FSP1-WT or FSP1-KO cells; assay type: cell-based, human; conditions: iFSP1 10 μM, CPBA 100 μM; for extent of sensitization to ferroptosis in FSP1-WT cells: FIN56, BSO or RSL3, 16 h; for additional effect in FSP1-deficient cells: FSP1-KO HT1080
# Experimental: The following HT1080 fibrosarcoma cell lines were generated using CRISPR/Cas9 technology, as previously described (Doll et al., 2019): HT1080 GPX4-knockout (KO) cells (maintained in the presence of 100 μM α-tocopherol); HT1080 GPX4 knockout cells overexpressing FSP1 (GPX4-KO/FSP1-OE); GPX4-KO cells overexpressing FSP1 and re-expressing GPX4 (GPX4-KO/FSP1-OE/GPX4-OE); HT1080 FSP1-WT or FSP1-KO cells; and HT1080 FSP1-KO cells reconstituted with either FSP1-WT or FSP1-G2A. LOX-IMVI (BRAF V600E heterozygous human melanoma cells) expressing either the Venus mock vector or FSP1-Venus (Doll et al., 2019) were grown in RPMI-1640 supplemented with 10% FCS, 2 mM L-glutamine and Pen/Strep.
# Cells were seeded onto 96-well plates (5,000 cells per well), and treated with serial dilutions of ferroptosis-inducing compounds (erastin, BSO, RSL3, FIN56) or cytotoxic drugs (staurosporine, nocodazole, tunicamycin, paclitaxel, etoposide, menadione, rotenone, FCCP, carboplatin) in the absence or presence of CPBA or iFSP1 (100 μM or 10 μM, respectively; unless stated otherwise) or the DMSO solvent control. Ferroptotic cell death was evaluated by incubating in the absence or presence of liproxstatin-1 (100 nM), ferrostatin-1 (200 nM), or deferoxamine (100 μM). Cell viability was assessed after 16 h using AquaBluer as an indicator of viable cells according to the manufacturer's recommendations (MultiTarget Pharmaceuticals, LLC). Fluorescence (excitation, 540 nm; emission, 590 nm) was analyzed on a Clariostar microplater reader.
# We next performed comparative experiments to compare the effect of CPBA with the effect of the small molecule FSP1 inihibitor iFSP1. To this end, we incubated FSP1-WT or FSP1-KO HT1080 cells with FIN56 (see FIG. 15), BSO (see FIG. 16) or RSL3 (see FIG. 17) to induce ferroptosis as described above. Lack of FSP1 expression in FSP1-KO cell lines was confirmed by Western Blot as described above (see FIG. 14).
# Next, we compared the treatment of FSP1-WT and FSP1-KO cells with either iFSP1 or with CPBA (see FIGS. 15, 16 and 17).
SMILES,affinity for human FSP1 [1],extent of sensitization to ferroptosis in FSP1-WT cells [2],additional effect in FSP1-deficient cells [2]
"Cc1ccc(-c2c(C#N)c(N)n3c(nc4ccccc43)c2C#N)cc1 [iFSP1, reference compound]",the affinity of iFSP1 for human FSP1 exceeds the affinity of CPBA for human FSP1,slightly smaller than the effect of CBPA in all conditions,no additional effect of iFSP1 or CPBA is observed in FSP1-deficient cells
"O=C(Nc1ccccc1C(=O)O)c1ccc(Oc2ccc(C(=O)Nc3ccccc3C(=O)O)cc2)cc1 [CPBA, 2-[[4-[4-[(2-carboxyphenyl)carbamoyl]phenoxy]benzoyl]amino]-benzoic acid]",the affinity of iFSP1 for human FSP1 exceeds the affinity of CPBA for human FSP1,comparable to the effect of FSP1-deficiency,no additional effect of iFSP1 or CPBA is observed in FSP1-deficient cells
